Data published in patent US20230233569A1 (Revolution Medicines, Inc., priority 2020, published 2023).

Legend:
[1] = tested on: K-Ras G12C (NCI-H358 cells); assay: Potency assay: pERK (AlphaLISA SureFire or In-Cell Western); type: cell-based; conditions: Homo sapiens, NCI-H358; H358 KRAS G12C; read-out: pERK EC50
How it was run: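 Cellular pERK decrease measured after 4 h compound exposure (37 °C, 5% CO2) of NCI-H358 cells, 10-point 3-fold series from 10 mM DMSO stock, duplicates. Detection either by In-Cell Western (IR-800CW secondary, DRAQ5 stain) or AlphaLISA SureFire Ultra p-ERK1/2; 4-parameter sigmoidal fit gave IC50.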

NCI-H358 (K-Ras G12C) = assay: CellTiter-Glo cell viability assay, 5-day treatment; type: cell-based; conditions: Homo sapiens, NCI-H358, H358, K-Ras G12C; read-out: Additional H358 Cell Viability assay data (K-Ras G12C, IC50)
How it was run: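 Viability is read as luminescence on day 5 after direct compound addition to plated cells, following about 30 minutes' room-temperature equilibration. Each signal is scaled to mean DMSO as 100%.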

KRAS G12C = KRAS G12C (Homo sapiens, UniProt P01116+P62937, G12C); assay: Disruption of BRAF RBD interaction with Ras (FRET / MOA assay, with Cyclophilin A); type: biochemical; conditions: KRAS G12C; read-out: KRAS G12C FRET data IC50
Chain of KRAS G12C (P01116 1-169 isoform P01116-2 G12C): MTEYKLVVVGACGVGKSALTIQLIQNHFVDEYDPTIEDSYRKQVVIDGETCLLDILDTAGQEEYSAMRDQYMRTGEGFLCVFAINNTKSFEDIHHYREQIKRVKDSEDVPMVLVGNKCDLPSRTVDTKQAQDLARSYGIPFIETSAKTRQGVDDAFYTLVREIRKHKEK
Chain of KRAS G12C (P62937 whole entry): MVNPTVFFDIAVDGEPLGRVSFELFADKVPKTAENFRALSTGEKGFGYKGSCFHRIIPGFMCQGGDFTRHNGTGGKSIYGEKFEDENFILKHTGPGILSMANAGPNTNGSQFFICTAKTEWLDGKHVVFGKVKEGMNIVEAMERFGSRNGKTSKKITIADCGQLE
How it was run: (§1)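 First, compounds at a ten-point threefold dilution series (highest final concentration 30 μM) were incubated with nucleotide-loaded K-Ras, Cyclophilin A and BRAF RBD for 3 h at 25 °C. Next, detection antibodies were added for 1.5 h. Finally, IC50 was calculated from TR-FRET ratio decreases against DMSO controls.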

KRAS G12D = KRAS G12D (Homo sapiens, UniProt P01116+P62937, G12D); assay: as above; type: biochemical; conditions: read-out: KRAS G12D FRET data, IC50
Chain of KRAS G12D (P01116 1-169 isoform P01116-2 G12D limits assumed): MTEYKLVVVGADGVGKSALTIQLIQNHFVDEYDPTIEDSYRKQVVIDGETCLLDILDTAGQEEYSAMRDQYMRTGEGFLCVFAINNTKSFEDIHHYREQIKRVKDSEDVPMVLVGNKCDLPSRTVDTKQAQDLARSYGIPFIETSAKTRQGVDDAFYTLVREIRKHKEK
Chain of KRAS G12D (P62937 whole entry): as the sequence (P62937 whole entry) above
How it was run: as §1

NRAS G12C = NRAS G12C (Homo sapiens, UniProt P01111+P62937, G12C); assay: as above; type: biochemical; conditions: NRAS G12C; read-out: NRAS G12C FRET data IC50
Chain of NRAS G12C (P01111 whole entry G12C): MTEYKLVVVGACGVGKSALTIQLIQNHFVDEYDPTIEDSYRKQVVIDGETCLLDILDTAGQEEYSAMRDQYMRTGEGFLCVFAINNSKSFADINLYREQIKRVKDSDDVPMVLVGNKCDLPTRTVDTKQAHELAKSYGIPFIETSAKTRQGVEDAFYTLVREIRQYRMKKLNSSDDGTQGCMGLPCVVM
Chain of NRAS G12C (P62937 whole entry): as the sequence (P62937 whole entry) above

NRAS Q61K = NRAS Q61K (Homo sapiens, UniProt P01111+P62937, Q61K); assay: as above; type: biochemical; conditions: NRAS Q61K; read-out: NRAS Q61K FRET data IC50
Chain of NRAS Q61K (P01111 whole entry Q61K): as the sequence (P01111 whole entry G12C) above, with C12G, Q61K counted along it
Chain of NRAS Q61K (P62937 whole entry): as the sequence (P62937 whole entry) above
How it was run: (§2)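 IC50 reflects compound-driven Ras:Cyclophilin A ternary complex displacing BRAF RBD, read as lowered TR-FRET ratio relative to DMSO after Eu anti-His (10 nM) and APC anti-GST (50 nM) detection for 1.5 h. Prior incubation 3 h, 25° C, with 12.5 nM GMPPNP-loaded Ras, 50 nM BRAF RBD, 25 μM Cyclophilin A; top compound 30 μM.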

NRAS Q61R = NRAS Q61R (Homo sapiens, UniProt P01111+P62937, Q61R); assay: as above; type: biochemical; conditions: NRAS Q61R; read-out: NRAS Q61R FRET data IC50
Chain of NRAS Q61R (P01111 whole entry Q61R): as the sequence (P01111 whole entry G12C) above, with C12G, Q61R counted along it
Chain of NRAS Q61R (P62937 whole entry): as the sequence (P62937 whole entry) above
How it was run: as §2

AsPC-1 (K-Ras G12D) = assay: CellTiter-Glo cell viability assay; type: cell-based; conditions: Homo sapiens, ASPC1, 120 h, read-out: AsPC-1 Cell Viability assay data IC50, K-Ras G12D, 5-day treatment
Procedure: Determination of Cell Viability in RAS Mutant Cancer Cell Lines
Protocol: CellTiter-Glo® Cell Viability Assay
Note—The following protocol describes a procedure for monitoring cell viability of K-Ras mutant cancer cell lines in response to a compound of the invention. Other RAS isoforms may be employed, though the number of cells to be seeded will vary based on cell line used.
Test compounds (132.5 nL) were directly dispensed into the assay plates containing cells. […] On day 5, assay plates and their contents were equilibrated to room temperature for approximately 30 minutes. […] Luminescence was measured using the PerkinElmer Enspire. Data were normalized by the following: (Sample signal/Avg. DMSO)*100. The data were fit using a four-parameter logistic fit.

KRAS G13C = KRAS G13C (Homo sapiens, UniProt P01116+P62937, G13C); assay: Disruption of BRAF RBD interaction with Ras (FRET / MOA assay, with Cyclophilin A); type: biochemical; conditions: KRAS G13C; read-out: KRAS G13C FRET data IC50
Chain of KRAS G13C (P01116 1-169 isoform P01116-2 G13C): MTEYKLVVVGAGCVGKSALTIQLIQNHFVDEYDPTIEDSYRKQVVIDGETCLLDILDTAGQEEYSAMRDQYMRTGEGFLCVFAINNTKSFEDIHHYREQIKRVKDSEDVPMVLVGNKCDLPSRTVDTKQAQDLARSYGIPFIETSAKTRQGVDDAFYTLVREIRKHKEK
Chain of KRAS G13C (P62937 whole entry): as the sequence (P62937 whole entry) above
How it was run: as §1

Row | SMILES | EC50 [1] | IC50 (NCI-H358 (K-Ras G12C)) | IC50 (KRAS G12C) | IC50 (KRAS G12D) | IC50 (NRAS G12C) | IC50 (NRAS Q61K) | IC50 (NRAS Q61R) | IC50 (AsPC-1 (K-Ras G12D)) | IC50 (KRAS G13C)
1 | CCn1c(-c2cccnc2[C@H](C)OC)c2c3cc(ccc31)N1CCC[C@@H](C[C@H](NC(=O)[C@H](C(C)C)N(C)C(=O)C3(F)CCN(C(=O)C#CC(C)(C)N(C)C)CC3)C(=O)N3CCCC(N3)C(=O)OCC(C)(C)C2)C1 [Example A616] | < 5 µM | < 0.01 µM | 0.01 to 0.1 µM | > 10 µM | < 0.01 µM | > 10 µM | > 10 µM | – | –
2 | C=CC(=O)N1CCC[C@@H]2CN(C(=O)N(C)[C@H](C(=O)N[C@H]3Cc4nc(cs4)-c4ccc5c(c4)c(c(-c4cccnc4[C@H](C)OC)n5CC)CC(C)(C)COC(=O)C4CCCN(N4)C3=O)C(C)C)C[C@@H]21 (some centres unmarked) [Example A619] | < 5 µM | 0.01 to 0.1 µM | – | – | 0.1 to 1 µM | 0.1 to 1 µM | 0.1 to 1 µM | – | –
3 | C=CC(=O)Nc1cnc(OC[C@H](C(=O)N[C@H]2Cc3cccc(c3)-c3ccc4c(c3)c(c(-c3cccnc3[C@H](C)OC)n4CC)CC(C)(C)COC(=O)C3CCCN(N3)C2=O)C(C)C)n1C (some centres unmarked) [Example A600] | < 5 µM | < 0.01 µM | – | – | < 0.01 µM | 1 to 10 µM | 1 to 10 µM | – | –
4 | CO[C@@H](C)c1ncccc1-c1c2c3cc(ccc3n1CC(F)(F)F)N1CCO[C@@H](C[C@H](NC(=O)[C@H](C(C)C)N3CC[C@@]4(CCN(C(=O)C#CC(C)(C)N(C)C)C4)C3=O)C(=O)N3CCCC(N3)C(=O)OCC(C)(C)C2)C1 [Example A628] | < 5 µM | 0.01 to 0.1 µM | – | – | < 0.01 µM | > 10 µM | > 10 µM | – | –
5 | C=CC(=O)N1CC[C@H](C(=O)N(C)[C@@H](CC(F)(F)F)C(=O)N[C@H]2Cc3cccc(c3)-c3ccc4c(c3)c(c(-c3cccnc3[C@H](C)OC)n4CC)CC(C)(C)COC(=O)C3CCCN(N3)C2=O)C1 (some centres unmarked) [Example A639] | < 5 µM | 0.1 to 1 µM | – | – | 0.1 to 1 µM | 1 to 10 µM | 1 to 10 µM | – | –
6 | CCn1c(-c2cccnc2[C@H](C)OC)c2c3cc(ccc31)-c1cccc(c1)C[C@H](NC(=O)[C@@H](COC1CN(C(=O)C#CC(C)(C)N(C)C(C)C)C1)C(C)C)C(=O)N1CCCC(N1)C(=O)OCC(C)(C)C2 (some centres unmarked) [Example A599] | < 5 µM | < 0.01 µM | – | – | 0.01 to 0.1 µM | > 10 µM | > 10 µM | – | –
7 | CCn1c(-c2cnccc2COC)c2c3cc(ccc31)-c1cc(O)cc(c1)C[C@H](NC(=O)[C@H](C(C)C)N(C)C(=O)CN(C)C(=O)[C@H]1N[C@H]1c1ccccc1)C(=O)N1CCC[C@H](N1)C(=O)OCC(C)(C)C2 [Example 116] | – | – | – | – | – | – | – | > 10 µM | –
8 | C=CC(=O)N(C)CC1CCN(C(=O)N(C)[C@H](C(=O)N[C@H]2Cc3nc(cs3)-c3ccc4c(c3)c(c(-c3cccnc3[C@H](C)OC)n4CC)CC(C)(C)COC(=O)C3CCCN(N3)C2=O)C(C)C)CC1 (some centres unmarked) [Example A629] | < 5 µM | < 0.01 µM | – | 0.1 to 1 µM | 0.01 to 0.1 µM | 0.01 to 0.1 µM | 0.01 to 0.1 µM | – | 0.01 to 0.1 µM
9 | CCn1c(-c2cccnc2[C@H](C)OC)c2c3cc(ccc31)-c1cccc(n1)C[C@H](NC(=O)[C@H](C(C)C)N(C)C(=O)N1CCC13CN(C(=O)C#CC(C)(C)N(C)C)C3)C(=O)N1CCCC(N1)C(=O)OCC(C)(C)C2 (some centres unmarked) [Example A623] | < 5 µM | 0.01 to 0.1 µM | – | – | 0.1 to 1 µM | 0.1 to 1 µM | 1 to 10 µM | – | –
10 | C=CC(=O)N(C)CCC1CCN(C(=O)N(C)[C@H](C(=O)N[C@H]2Cc3nc(cs3)-c3ccc4c(c3)c(c(-c3cccnc3[C@H](C)OC)n4CC)CC(C)(C)COC(=O)C3CCCN(N3)C2=O)C(C)C)CC1 (some centres unmarked) [Example A621] | < 5 µM | < 0.01 µM | – | – | 0.01 to 0.1 µM | 0.01 to 0.1 µM | 0.01 to 0.1 µM | – | –
11 | CCn1c(-c2cccnc2[C@H](C)OC)c2c3cc(ccc31)-c1csc(n1)C[C@H](NC(=O)[C@H](C(C)C)N(C)C(=O)N1C[C@@H]3CN(C(=O)C#CC(C)(C)N(C)C)CC[C@@H]31)C(=O)N1CCCC(N1)C(=O)OCC(C)(C)C2 (some centres unmarked) [Example A625] | < 5 µM | 0.01 to 0.1 µM | – | – | 0.1 to 1 µM | 0.1 to 1 µM | 0.1 to 1 µM | – | –
12 | C=CC(=O)N1CC2(CCN2C(=O)N(C)[C@H](C(=O)N[C@H]2Cc3cccc(n3)-c3ccc4c(c3)c(c(-c3cccnc3[C@H](C)OC)n4CC)CC(C)(C)COC(=O)C3CCCN(N3)C2=O)C(C)C)C1 (some centres unmarked) [Example A636] | < 5 µM | < 0.01 µM | – | – | 0.01 to 0.1 µM | 0.1 to 1 µM | 0.1 to 1 µM | – | –
13 | C=CC(=O)N1CCC[C@H]2CN(C(=O)N(C)[C@H](C(=O)N[C@H]3Cc4nc(cs4)-c4ccc5c(c4)c(c(-c4cccnc4[C@H](C)OC)n5CC)CC(C)(C)COC(=O)C4CCCN(N4)C3=O)C(C)C)C[C@H]21 (some centres unmarked) [Example A618] | < 5 µM | 0.01 to 0.1 µM | – | – | 0.1 to 1 µM | 0.1 to 1 µM | 0.1 to 1 µM | – | –
14 | CO[C@@H](C)c1ncccc1-c1c2c3cc(ccc3n1CC(F)(F)F)-c1csc(n1)C[C@H](NC(=O)[C@H](C(C)C)N(C)C(=O)N1CCC3(CC1)CN(C(=O)/C=C/CF)C3)C(=O)N1CCCC(N1)C(=O)OCC(C)(C)C2 (some centres unmarked) [Example A602] | < 5 µM | < 0.01 µM | – | – | 0.01 to 0.1 µM | 0.01 to 0.1 µM | 0.01 to 0.1 µM | – | –
15 | CCn1c(-c2cccnc2[C@H](C)OC)c2c3cc(ccc31)N1CCC[C@@H](C[C@H](NC(=O)[C@H](C(C)C)N(C)C(=O)C3CCN(C(=O)C#CC(C)(C)N4CCC4)C3)C(=O)N3CCCC(N3)C(=O)OCC(C)(C)C2)C1 (some centres unmarked) [Example A617] | < 5 µM | 0.01 to 0.1 µM | – | – | 0.01 to 0.1 µM | > 10 µM | > 10 µM | – | –
16 | CCn1c(-c2cccnc2[C@H](C)OC)c2c3cc(ccc31)-c1csc(n1)C[C@H](NC(=O)[C@H](F)COC1CN(C(=O)C#CC(C)(C)N(C)C)C1)C(=O)N1CCCC(N1)C(=O)OCC(C)(C)C2 (some centres unmarked) [Example A627] | < 5 µM | < 0.01 µM | – | – | < 0.01 µM | > 10 µM | > 10 µM | – | –
